According to patent US20260022143A1, “Cyclic Peptide Inhibitors of IL-23” (JANSSEN PHARMACEUTICA NV, priority 2022, published 2026):
Positions of bridges follow the written chain, without caps; N, C: chain ends. Non-standard residues stand in square brackets, D forms with d. Residues, ends and D or L forms follow the SMILES beside them. *: point of attachment. Me3N+(CH2)2O(CH2)2O(CH2)2CO = C[N+](C)(C)CCOCCOCCC(=O)*; Trp(7-Me) = Cc1cccc2c(C[C@H](N)C(=O)O)c[nH]c12; X83 = CN(CCC[N+](C)(C)CCCC[N+](C)(C)C)CC*; X9 = COCCOCCOCC[N+](C)(C)CCc1cn(CC*)nn1; CH2CH2OCH2CH2NMe3+ = C[N+](C)(C)CCOCC*; 2Nal = N[C@@H](Cc1ccc2ccccc2c1)C(=O)O; X81 = C[N+](C)(CCCC*)CC[N+]1(C)CCOCC1; AEF = NCCOc1ccc(C[C@H](N)C(=O)O)cc1; X75 = C[N+](C)(C)CCOCC[N+](C)(C)CC*; X26 = C[N+](C)(C)CCCCc1cn(CC*)nn1; X32 = C(CCC*)CC[N+]12CCN(CC1)CC2; 3Pal = N[C@@H](Cc1cccnc1)C(=O)O; Lys(Me) = CNCCCC[C@H](N)C(=O)O; Pen = CC(C)(S)[C@H](N)C(=O)O; X66 = C[N+]1(CCC*)CCOCC1; Thp = NC1(C(=O)O)CCOCC1; X3 = C[N+](C)(C)CCCCC*; Sar = CNCC(=O)O

Assay: Exposed Polar Surface Area (EPSA)
Assay type: physicochemical
Settings: SFC on Chirex 3014 column; sample 1 mM DMSO stock; read-out: EPSA
In short: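 Polarity descriptor in Å² derived from retention time using 8 calibration standards re-run every 20 compounds. Duplicate injections of 1 mM DMSO stock; linear 5–60% modifier gradient (20 mM ammonium formate in MeOH) with CO2 at 4 mL/min, 35 °C, on a Chirex 3014 column.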

Row | SMILES | EPSA
1 | CC(=O)N(C)CCCC[C@@H]1NC(=O)[C@H](Cc2c[nH]c3c(C)cccc23)NC(=O)[C@H]([C@@H](C)O)NC(=O)[C@H](CC(=O)N(C)C)NC(=O)[C@@H](NC(=O)CCOCCOCC[N+](C)(C)C)C(C)(C)SSC(C)(C)[C@@H](C(=O)N[C@@H](Cc2ccc(OCC[N+](C)(C)CCOCC[N+](C)(C)C)cc2)C(=O)N[C@@H](Cc2ccc3ccccc3c2)C(=O)NC2(C(=O)N[C@@H](CCCCN(C)C(C)=O)C(=O)N[C@@H](CC(N)=O)C(=O)N[C@@H](Cc3cccnc3)C(=O)N(C)CC(=O)N(C)C)CCOCC2)NC1=O [compound 264, cPEG3aCO-Pen(3)-N(N(Me)2)-T-7MeW-K(NMeAc)-Pen(3)-AEF(aPEG2a)-2Nal-THP-K(NMeAc)-N-3Pya-Sar-CON(Me)2] ({Me3N+(CH2)2O(CH2)2O(CH2)2CO}-[Pen]D(NMe2)T[Trp(7-Me)][Lys(Me)](Ac)[Pen]Y(X75)[2Nal][Thp][Lys(Me)](Ac)N[3Pal][Sar]-NMe2; disulfide 1-6) | 151 A^2
2 | CC(=O)N(C)CCCC[C@@H]1NC(=O)[C@H](Cc2c[nH]c3c(C)cccc23)NC(=O)[C@H]([C@@H](C)O)NC(=O)[C@H](CC(=O)N(C)C)NC(=O)[C@@H](NC(=O)CCOCCOCC[N+](C)(C)C)C(C)(C)SSC(C)(C)[C@@H](C(=O)N[C@@H](Cc2ccc(OCCCC[N+](C)(C)CC[N+]3(C)CCOCC3)cc2)C(=O)N[C@@H](Cc2ccc3ccccc3c2)C(=O)NC2(C(=O)N[C@@H](CCCCN(C)C(C)=O)C(=O)N[C@@H](CC(N)=O)C(=O)N[C@@H](Cc3cccnc3)C(=O)N(C)CC(=O)N(C)C)CCOCC2)NC1=O [compound 271, cPEG3aCO-Pen(3)-N(N(Me)2)-T-7MeW-K(NMeAc)-Pen(3)-morfTMA4F-2Nal-THP-K(NMeAc)-N-3Pya-Sar-CON(Me)2] ({Me3N+(CH2)2O(CH2)2O(CH2)2CO}-[Pen]D(NMe2)T[Trp(7-Me)][Lys(Me)](Ac)[Pen]Y(X81)[2Nal][Thp][Lys(Me)](Ac)N[3Pal][Sar]-NMe2; disulfide 1-6) | 159 A^2
3 | CC(=O)N(C)CCCC[C@@H]1NC(=O)[C@H](Cc2c[nH]c3c(C)cccc23)NC(=O)[C@H]([C@@H](C)O)NC(=O)[C@H](CC(=O)N(C)C)NC(=O)[C@@H](NC(=O)CCOCCOCC[N+](C)(C)C)C(C)(C)SSC(C)(C)[C@@H](C(=O)N[C@@H](Cc2ccc(OCCC[N+]3(C)CCOCC3)cc2)C(=O)N[C@@H](Cc2ccc3ccccc3c2)C(=O)NC2(C(=O)N[C@@H](CCCCN(C)C(C)=O)C(=O)N[C@@H](CC(N)=O)C(=O)N[C@@H](Cc3cccnc3)C(=O)N(C)CC(=O)N(C)C)CCOCC2)NC1=O [compound 274, cPEG3aCO-Pen(3)-N(N(Me)2)-T-7MeW-K(NMeac)-Pen(3)-MMoPF-2Nal-THP-K(NMeAc)-N-3Pya-Sar-CON(Me)2] ({Me3N+(CH2)2O(CH2)2O(CH2)2CO}-[Pen]D(NMe2)T[Trp(7-Me)][Lys(Me)](Ac)[Pen]Y(X66)[2Nal][Thp][Lys(Me)](Ac)N[3Pal][Sar]-NMe2; disulfide 1-6) | 153 A^2
4 | CC(=O)N[C@@H]1C(=O)N[C@@H](CC(=O)N(C)C)C(=O)N[C@@H]([C@@H](C)O)C(=O)N[C@@H](Cc2c[nH]c3c(C)cccc23)C(=O)N[C@@H](CCCCN(C)C(C)=O)C(=O)N[C@H](C(=O)N[C@@H](Cc2ccc(OCCCCC[N+](C)(C)C)cc2)C(=O)N[C@@H](Cc2ccc3ccccc3c2)C(=O)NC2(C(=O)N[C@@H](COCCOCC[N+](C)(C)C)C(=O)N[C@@H](CC(N)=O)C(=O)N[C@@H](Cc3cccnc3)C(=O)N(C)CC(=O)N(C)C)CCOCC2)C(C)(C)SSC1(C)C [compound 275, MeCO-Pen(3)-N(N(Me)2)-T-7MeW-K(NMeAc)-Pen(3)-TMAPF-2Nal-THP-APEG2Ser-N-3Pya-Sar-CON(Me)2] (Ac-[Pen]D(NMe2)T[Trp(7-Me)][Lys(Me)](Ac)[Pen]Y(X3)[2Nal][Thp]S(CH2CH2OCH2CH2NMe3+)N[3Pal][Sar]-NMe2; disulfide 1-6) | 149 A^2
5 | CC(=O)N(C)CCCC[C@@H]1NC(=O)[C@H](Cc2c[nH]c3c(C)cccc23)NC(=O)[C@H]([C@@H](C)O)NC(=O)[C@H](CC(=O)N(C)C)NC(=O)[C@@H](NC(=O)CCOCCOCC[N+](C)(C)C)C(C)(C)SSC(C)(C)[C@@H](C(=O)N[C@@H](Cc2ccc(OCCN(C)CCC[N+](C)(C)CCCC[N+](C)(C)C)cc2)C(=O)N[C@@H](Cc2ccc3ccccc3c2)C(=O)NC2(C(=O)N[C@@H](CCCCN(C)C(C)=O)C(=O)N[C@@H](CC(N)=O)C(=O)N[C@@H](Cc3cccnc3)C(=O)N(C)CC(=O)N(C)C)CCOCC2)NC1=O [compound 277, cPEG3aCO-Pen(3)-N(N(Me)2)-T-7MeW-K(NMeAc)-Pen(3)-AEF(SPD)-2Nal-THP-K(NMeAc)-N-3Pya-Sar-CON(Me)2] ({Me3N+(CH2)2O(CH2)2O(CH2)2CO}-[Pen]D(NMe2)T[Trp(7-Me)][Lys(Me)](Ac)[Pen]Y(X83)[2Nal][Thp][Lys(Me)](Ac)N[3Pal][Sar]-NMe2; disulfide 1-6) | 154 A^2
6 | CC(=O)NCCCC[C@@H]1NC(=O)[C@H](Cc2c[nH]c3c(C)cccc23)NC(=O)[C@H]([C@@H](C)O)NC(=O)[C@H](CC(=O)N(C)C)NC(=O)[C@@H](NC(C)=O)C(C)(C)SSC(C)(C)[C@@H](C(=O)N[C@@H](Cc2ccc(OCCN)cc2)C(=O)N[C@@H](Cc2ccc3ccccc3c2)C(=O)NC2(C(=O)N[C@@H](CCCCNC(C)=O)C(=O)N[C@@H](CC(N)=O)C(=O)N[C@@H](Cc3cccnc3)C(=O)N(C)CC(N)=O)CCOCC2)NC1=O [compound 279, MeCO-Pen(3)-N(N(Me)2)-T-7MeW-K(Ac)-Pen(3)-AEF-2Nal-THP-K(Ac)-N-3Pya-Sar-CONH2] (Ac-[Pen]D(NMe2)T[Trp(7-Me)]K(Ac)[Pen][AEF][2Nal][Thp]K(Ac)N[3Pal][Sar]-NH2; disulfide 1-6) | 163 A^2
7 | CC(=O)N[C@@H]1C(=O)N[C@@H](CC(N)=O)C(=O)N[C@@H]([C@@H](C)O)C(=O)N[C@@H](Cc2c[nH]c3c(C)cccc23)C(=O)N[C@@H](CCCCN(C)C(C)=O)C(=O)N[C@H](C(=O)N[C@@H](Cc2ccc(OCCN)cc2)C(=O)N[C@@H](Cc2ccc3ccccc3c2)C(=O)NC2(C(=O)N[C@@H](CCCCN(C)C(C)=O)C(=O)N[C@@H](CC(N)=O)C(=O)N[C@@H](Cc3cccnc3)C(=O)N(C)CC(N)=O)CCOCC2)C(C)(C)SSC1(C)C [compound 280] (Ac-[Pen]NT[Trp(7-Me)][Lys(Me)](Ac)[Pen][AEF][2Nal][Thp][Lys(Me)](Ac)N[3Pal][Sar]-NH2; disulfide 1-6 (inferred)) | 167 A^2
8 | CC(=O)NCCCC[C@@H]1NC(=O)[C@H](Cc2c[nH]c3c(C)cccc23)NC(=O)[C@H]([C@@H](C)O)NC(=O)[C@H](CC(N)=O)NC(=O)[C@@H](NC(C)=O)C(C)(C)SSC(C)(C)[C@@H](C(=O)N[C@@H](Cc2ccc(OCCN)cc2)C(=O)N[C@@H](Cc2ccc3ccccc3c2)C(=O)NC2(C(=O)N[C@@H](CCCCNC(C)=O)C(=O)N[C@@H](CC(N)=O)C(=O)N[C@@H](Cc3cccnc3)C(=O)N(C)CC(=O)N(C)C)CCOCC2)NC1=O [compound 282] (Ac-[Pen]NT[Trp(7-Me)]K(Ac)[Pen][AEF][2Nal][Thp]K(Ac)N[3Pal][Sar]-NMe2; disulfide 1-6) | 163 A^2
9 | COCCOCCOCC[N+](C)(C)CCc1cn(CCOc2ccc(C[C@H](NC(=O)[C@H]3NC(=O)[C@H](CCCCN(C)C(C)=O)NC(=O)[C@H](Cc4c[nH]c5c(C)cccc45)NC(=O)[C@H]([C@@H](C)O)NC(=O)[C@H](CC(=O)N(C)C)NC(=O)[C@@H](NC(=O)CCOCCOCC[N+](C)(C)C)C(C)(C)SSC3(C)C)C(=O)N[C@@H](Cc3ccc4ccccc4c3)C(=O)NC3(C(=O)N[C@@H](CCCCN(C)C(C)=O)C(=O)N[C@@H](CC(N)=O)C(=O)N[C@@H](Cc4cccnc4)C(=O)N(C)CC(=O)N(C)C)CCOCC3)cc2)nn1 [compound 283, cPEG3aCO-Pen(3)-N(N(Me)2)-T-7MeW-K(NMeAc)-Pen(3)-Y(OTzlChmPEG3)-2Nal-THP-K(NMeAc)-N-3Pya-Sar-CON(Me)2] ({Me3N+(CH2)2O(CH2)2O(CH2)2CO}-[Pen]D(NMe2)T[Trp(7-Me)][Lys(Me)](Ac)[Pen]Y(X9)[2Nal][Thp][Lys(Me)](Ac)N[3Pal][Sar]-NMe2; disulfide 1-6) | 146 A^2
10 | CC(=O)N(C)CCCC[C@@H]1NC(=O)[C@H](Cc2c[nH]c3c(C)cccc23)NC(=O)[C@H]([C@@H](C)O)NC(=O)[C@H](CC(=O)N(C)C)NC(=O)[C@@H](NC(=O)CCOCCOCC[N+](C)(C)C)C(C)(C)SSC(C)(C)[C@@H](C(=O)N[C@@H](Cc2ccc(OCCn3cc(CCCC[N+](C)(C)C)nn3)cc2)C(=O)N[C@@H](Cc2ccc3ccccc3c2)C(=O)NC2(C(=O)N[C@@H](CCCCN(C)C(C)=O)C(=O)N[C@@H](CC(N)=O)C(=O)N[C@@H](Cc3cccnc3)C(=O)N(C)CC(=O)N(C)C)CCOCC2)NC1=O [compound 284, cPEG3aCO-Pen(3)-N(N(Me)2)-T-7MeW-K(NMeAc)-Pen(3)-Y(OTzlTMA4)-2Nal-THP-K(NMeAc)-N-3Pya-Sar-CON(Me)2] ({Me3N+(CH2)2O(CH2)2O(CH2)2CO}-[Pen]D(NMe2)T[Trp(7-Me)][Lys(Me)](Ac)[Pen]Y(X26)[2Nal][Thp][Lys(Me)](Ac)N[3Pal][Sar]-NMe2; disulfide 1-6) | 151 A^2
11 | CC(=O)N(C)CCCC[C@@H]1NC(=O)[C@H](Cc2c[nH]c3c(C)cccc23)NC(=O)[C@H]([C@@H](C)O)NC(=O)[C@H](CC(=O)N(C)C)NC(=O)[C@@H](NC(=O)CCOCCOCC[N+](C)(C)C)C(C)(C)SSC(C)(C)[C@@H](C(=O)N[C@@H](Cc2ccc(OCCCCCC[N+]34CCN(CC3)CC4)cc2)C(=O)N[C@@H](Cc2ccc3ccccc3c2)C(=O)NC2(C(=O)N[C@@H](CCCCN(C)C(C)=O)C(=O)N[C@@H](CC(N)=O)C(=O)N[C@@H](Cc3cccnc3)C(=O)N(C)CC(=O)N(C)C)CCOCC2)NC1=O [compound 292, cPEG3aCO-Pen(3)-N(N(Me)2)-T-7MeW-K(NMeAc)-Pen(3)-Diazabiclyclooctane6F-2Nal-THP-K(NMeAc)-N-3Pya-Sar-CON(Me)2] ({Me3N+(CH2)2O(CH2)2O(CH2)2CO}-[Pen]D(NMe2)T[Trp(7-Me)][Lys(Me)](Ac)[Pen]Y(X32)[2Nal][Thp][Lys(Me)](Ac)N[3Pal][Sar]-NMe2; disulfide 1-6) | 152 A^2
